Data from article PMC8396040, “Direct Synthesis of Polyaromatic Cyclophanes Containing Bis-Methylene-Interrupted Z-Double Bonds and Study of Their Antitumor Activity In Vitro” (International Journal of Molecular Sciences, 2021).
≈ marks a conversion by molar mass, not a printed value.

Columns and labels:
Hek293 = assay: Cytotoxicity, flow cytofluorimetry (Guava ViaCount / 7-AAD); format: cell-based; details: Homo sapiens, mean ± SEM, at least 3 independent experiments
Experimental: (§1) The cytotoxicity of the prepared compounds was studied using Jurkat, K562, U937, and HL-60 suspension tumor cells; conditionally normal Hek293 cells; and normal fibroblasts. The IC50 values were determined by flow cytofluorimetry with the Guava ViaCount reagent kit (Millipore, Bedford, MA, USA).
(§2) Cells (Jurkat, K562, U937, HL-60, HEK293, and normal fibroblasts) were purchased from HPA Culture Collections (Salisbury, UK) and cultured according to standard mammalian tissue culture protocols and the sterile technique. All cell lines used in the study were tested and shown to be free of mycoplasma and other […] contamination. HEK293 and fibroblast cell lines were cultured as monolayers and maintained in Dulbecco’s modified Eagle’s medium (DMEM, Gibco BRL, Waltham, MA, USA) supplemented with 10% fetal bovine serum and 1% penicillin-streptomycin solution at 37 °C in a humidified incubator under a 5% CO2 atmosphere.
(§3) Cells were maintained in RPMI 1640 (Jurkat, K562, U937, HL60) (Gibco, Waltham, MA, USA) supplemented with 4 mM glutamine, 10% FBS (Sigma, Burlington, MA, USA), and 100 units/ml penicillin–streptomycin (Sigma, Burlington, MA, USA). All types of cells were grown in an atmosphere of 5% CO2 at 37 °C. The cells were subcultured at 2–3-day intervals. Adherent cells (HEK293 and normal fibroblasts) were suspended using trypsin/EDTA and counted after they reached 80% confluency. Cells were then seeded in 24-well plates at 5 × 10^4 cells per well and incubated overnight. Jurkat, K562, U937, and HL60 cells were subcultured at 2-day intervals with a seeding density of 1 × 10^5 cells per 24-well plates in RPMI with 10% FBS.
(§4) Viability (live/dead) assessment was performed by staining cells with 7-AAD (7-Aminoactinomycin D) (Biolegend, Fell, Germany). After treatment, cells were harvested, washed 1–2 times with phosphate-buffered saline (PBS), and centrifuged at 400× g for 5 min. Cell pellets were resuspended in […] of flow cytometry staining buffer (PBS without Ca^2+ and Mg^2+, 2.5% FBS) and stained with 5 μL of 7-AAD staining solution for 15 min at room temperature in the dark. Samples were acquired on a NovoCyteTM 2000 FlowCytometry System (ACEA) equipped with a 488 nm argon laser. Detection of 7-AAD emission was collected through a 675/30 nm filter in FL4 channel.

Jurkat = assay: as above; format: cell-based; details: Homo sapiens, mean ± SEM, at least 3 independent experiments
Experimental: as §1, §2, §3, §4

HL-60 = assay: as above; format: cell-based; details: Homo sapiens, mean ± SEM, at least 3 independent experiments
Experimental: as §1, §2, §3, §4

U937 = assay: as above; format: cell-based; details: Homo sapiens, U-937; mean ± SEM, at least 3 independent experiments
Experimental: as §1, §2, §3, §4

K562 = assay: as above; format: cell-based; details: Homo sapiens, mean ± SEM, at least 3 independent experiments
Experimental: as §1, §2, §3, §4

normal fibroblasts = assay: as above; format: cell-based; details: Fibroblast; mean ± SEM, at least 3 independent experiments; read-out: Fibrobl. (IC50)
Experimental: as §1, §2, §3, §4

Jurkat cells [1] = assay: Mitochondrial damage, MitoSense Red / Annexin V-CF488A / 7-AAD (FlowCellect MitoDamage Kit); format: cell-based; details: for percentage of Jurkat tumor cells with reduced Δψ: 4 h (Figure 4)
Description: The changes in the mitochondrial membrane potential (ΔΨ) in Jurkat cells induced by treatment with compounds 8a, 8b, and 8c were detected using the MitoSense Red, a fluorescent dye, which is mainly accumulated in mitochondria and responds to changes in the membrane potential. The viable whole-body cells induce a high fluorescence level of MitoSense Red, whereas cells with dissipated mitochondrial membrane potential cause much lower fluorescence of MitoSense Red or no fluorescence. Annexin V and 7AAD are two dyes commonly used to detect apoptotic cells. […] Thus, using three different dyes, MitoSense Red, Annexin V (CF488A), and 7-AAD, we analyzed the dissipation of the mitochondrial membrane potential and the related apoptosis in Jurkat tumor cells in response to the action of synthesized macrodiolides (Figure 4).
Mitochondrial damage tests were carried out following the known procedure. Cytometric assay (Millipore’s FlowCellect™MitoDamage Kit, Merck, Burlington, MA, USA) that allowed multiparametric evaluation of three cell health markers: change in mitochondrial potential (early apoptosis and cellular stress), phosphatidylserine expression on the cell surface […], and membrane permeabilization (cell death), was used.

Jurkat cells [2] = assay: Induction of apoptosis, Annexin V / 7AAD flow cytometry; format: cell-based; details: 24 h; for apoptosis-inducing effect, dependence on dose: 0.1-0.3 µM
Experimental: We studied the new macrodiolides for the induction of apoptosis and for the effect on the cell cycle. For this purpose, we chose the Jurkat, K562, and U937 cell lines. Apoptosis was studied by flow cytofluorimetry using Annexin V and 7-aminoactinomycin D (7AAD) (Guava Nexin reagent (Millipore, Bedford, MA, USA)). After incubation, the cells were analyzed using a NovoCyte™ 2000 Flow Cytometry System (ACEA). Apoptotic cells are characterized by externalization of the phosphatidylserine (PS) phospholipid, which is normally located, in living cells, on the inner surface of the cell membrane. The phospholipid location on the outer membrane surface can be detected from early apoptosis up to complete cell degradation. […] The use of Annexin V in combination with 7AAD allows simultaneous discrimination between viable cells (V–/7AAD–), early apoptotic cells (V+/7AAD–), and late apoptotic or necrotic cells (V+/7AAD+).
Induction of apoptosis tests were carried out following the known procedure. Apoptosis was determined by flow cytometric analysis of Annexin V and 7-aminoactinomycin D staining. After treatment, cells during 24 h were harvested, washed 1–2 times with phosphate-buffered saline (PBS), and centrifuged at 400× g for 5 min. Cell pellets were resuspended in 200 μL of flow cytometry staining buffer (PBS without Ca^2+and Mg^2+, 2.5% FBS). Then, 200 μL of Guava Nexin reagent (Millipore, Bedford, MA, USA) were added to 5 × 10^5 cells in 200 μL, and the cells were incubated with the reagent for 20 min at room temperature in the dark. At the end of incubation, the cells were analyzed on a NovoCyteTM 2000 FlowCytometry System (ACEA, San Diego, CA, USA).

Jurkat cells [3] = assay: Cell cycle analysis (Guava Cell Cycle Reagent); format: cell-based; details: IC50 concentrations (8a 0.15 µM, 8b 0.16 µM, 8c 0.13 µM), 24 h
Experimental: Cell cycle analysis was carried out following the known procedure. Guava Cell Cycle Reagent (Millipore, Burlington, MA, USA) was used. Samples were analyzed on a NovoCyteTM 2000 FlowCytometry System (ACEA, San Diego, CA, USA).

[4] = test system: HT-29 human colon cancer cells; design: method as in PMID 12530851, PMID 16551088; details: HT-29 cell line; cited from earlier work

| SMILES | IC50 (Hek293) | IC50 (Jurkat) | IC50 (HL-60) | IC50 (U937) | IC50 (K562) | IC50 (normal fibroblasts) | action on mitochondria (reduction of mitochondrial potential) compared with staurosporine (Jurkat cells [1]) | percentage of Jurkat tumor cells with reduced Δψ (Jurkat cells [1]; 0.15 µM) | apoptosis-inducing effect, dependence on dose (Jurkat cells [2]) | Freq G1 (percentage of cells in G0/G1 phase) (Jurkat cells [3]) | percentage of apoptotic cells (early apoptosis and late apoptosis) (Jurkat cells [1]; 0.15 µM, 4 h) | An+,PI+ cells (late apoptosis) (Jurkat cells [2]; 0.1 µM) | An+,PI+ cells (late apoptosis) (Jurkat cells [2]; 0.3 µM) | PI+ cells (necrotic) (Jurkat cells [2]; 0.3 µM) | Freq Sub-G1 (cells in the sub-G0-G1 range) (Jurkat cells [3]) | IC50 [4] |
| --- | --- | --- | --- | --- | --- | --- | --- | --- | --- | --- | --- | --- | --- | --- | --- | --- |
| O=C1OCCC/C=C\CC/C=C\CCCOC(=O)c2ccccc2OCc2ccccc2COc2ccccc21 [6a, (10Z,14Z)-7,8,9,12,13,16,17,18,26,31-decahydro-5H,20H-tribenzo[c,g,k][1,5,10,14]tetraoxacyclohexacosine-5,20-dione] | 1940 ± 170 nM | 390 ± 30 nM | 430 ± 30 nM | 490 ± 40 nM | 610 ± 50 nM | 4710 ± 420 nM | – | – | – | – | – | – | – | – | – | – |
| O=C1OCCC/C=C\CC/C=C\CCCOC(=O)c2ccccc2OCc2cccc(c2)COc2ccccc21 [6b, (13Z,17Z)-2,6,9,22-tetraoxa-1,7(1,2),4(1,3)-tribenzenacyclotricosaphane-13,17-diene-8,23-dione] | 2180 ± 210 nM | 480 ± 50 nM | 440 ± 40 nM | 510 ± 50 nM | 640 ± 60 nM | 5090 ± 470 nM | – | – | – | – | – | – | – | – | – | – |
| O=C1OCCC/C=C\CC/C=C\CCCOC(=O)c2ccccc2OCc2ccc(cc2)COc2ccccc21 [6c, (13Z,17Z)-2,6,9,22-tetraoxa-1,7(1,2),4(1,4)-tribenzenacyclotricosaphane-13,17-diene-8,23-dione] | 1760 ± 160 nM | 340 ± 30 nM | 400 ± 30 nM | 460 ± 40 nM | 580 ± 50 nM | 4220 ± 390 nM | – | – | – | – | – | – | – | – | – | – |
| O=C1OCCCC/C=C\CC/C=C\CCCCOC(=O)c2ccccc2OCc2ccccc2COc2ccccc21 [7a, (11Z,15Z)-7,8,9,10,13,14,17,18,19,20,28,33-dodecahydro-5H,22H-tribenzo[c,g,k][1,5,10,14]tetraoxacyclooctacosine-5,22-dione] | 3860 ± 340 nM | 490 ± 40 nM | 940 ± 80 nM | 560 ± 60 nM | 760 ± 80 nM | 7120 ± 590 nM | – | – | – | – | – | – | – | – | – | – |
| O=C1OCCCC/C=C\CC/C=C\CCCCOC(=O)c2ccccc2OCc2cccc(c2)COc2ccccc21 [7b, (14Z,18Z)-2,6,9,24-tetraoxa-1,7(1,2),4(1,3)-tribenzenacyclopentacosaphane-14,18-diene-8,25-dione] | 4210 ± 390 nM | 940 ± 80 nM | 970 ± 90 nM | 1170 ± 90 nM | 1490 ± 110 nM | 7690 ± 720 nM | – | – | – | – | – | – | – | – | – | – |
| O=C1OCCCC/C=C\CC/C=C\CCCCOC(=O)c2ccccc2OCc2ccc(cc2)COc2ccccc21 [7c, (14Z,18Z)-2,6,9,24-tetraoxa-1,7(1,2),4(1,4)-tribenzenacyclopentacosaphane-14,18-diene-8,25-dione] | 3470 ± 310 nM | 350 ± 30 nM | 890 ± 90 nM | 390 ± 30 nM | 590 ± 40 nM | 6550 ± 610 nM | – | – | – | – | – | – | – | – | – | – |
| O=C1OCCCCCC/C=C\CC/C=C\CCCCCCOC(=O)c2ccccc2OCc2ccccc2COc2ccccc21 [8a, (13Z,17Z)-7,8,9,10,11,12,15,16,19,20,21,22,23,24,32,37-hexadecahydro-5H,26H-tribenzo[c,g,k][1,5,10,14]tetraoxacyclodotriacontine-5,26-dione] | 1440 ± 110 nM | 150 ± 20 nM | 220 ± 20 nM | 300 ± 20 nM | 370 ± 20 nM | 3370 ± 290 nM | comparable with the action of staurosporine | 19.36% | dose dependent | 63.04% | – | – | – | – | – | – |
| O=C1OCCCCCC/C=C\CC/C=C\CCCCCCOC(=O)c2ccccc2OCc2cccc(c2)COc2ccccc21 [8b, (16Z,20Z)-2,6,9,28-tetraoxa-1,7(1,2),4(1,3)-tribenzenacyclononacosaphane-16,20-diene-8,29-dione] | 1680 ± 140 nM | 160 ± 10 nM | 240 ± 20 nM | 310 ± 30 nM | 390 ± 40 nM | 3480 ± 320 nM | comparable with the action of staurosporine | 41.71% | dose dependent | 59.16% | 58.15% | 64.36% | 58.0% | 26.49% | 4.13% | – |
| O=C1OCCCCCC/C=C\CC/C=C\CCCCCCOC(=O)c2ccccc2OCc2ccc(cc2)COc2ccccc21 [8c, (16Z,20Z)-2,6,9,28-tetraoxa-1,7(1,2),4(1,4)-tribenzenacyclononacosaphane-16,20-diene-8,29-dione] | 1210 ± 90 nM | 130 ± 10 nM | 190 ± 10 nM | 270 ± 20 nM | 340 ± 30 nM | 3190 ± 280 nM | – | 26.26% | dose dependent | 55.93% | – | – | – | – | – | – |
| Oc1cccc(C23C=C4CN(CCc5ccc(c(O)c5)-c5ccc(O)cc54)C2Cc2cccc(O)c23)c1 (centres unmarked) [Haouamine A] | – | – | – | – | – | – | – | – | – | – | – | – | – | – | – | 0.1 µg/mL (≈ 0.204 µM) |
